Data as given in the supplement of paper PMC10627819.

Columns and labels:
B. subtilis 168 [1] = test: fitness (endpoint OD595 vs no drug) (fraction); higher = more growth
Method in brief: (§1)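 Background-subtracted growth curves were the basis for fitness, taken as the optical density at entry into stationary phase over the robust mean of no-drug control wells. A cap of 1 was applied. The curves came from OD595 readings every 30 min for 14 h at 37 °C, in 384-well plates seeded at OD595 0.01 with 30 µl, or 55 µl for S. pneumoniae.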

S. pneumoniae D39V [2] = test: as above
Method in brief: as §1

B. subtilis 168 [3] = test: Bliss interaction score (quartile over a dose matrix) (fitness difference); higher = more antagonism (negative = synergy)
Method in brief: (§2)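 The Bliss score takes observed fitness and subtracts the expected fitness, calculated as a product of single-drug fitness values. Those single-drug values were inferred from the combination data. Fitness is OD595 at entry into stationary phase divided by the plate's robust no-drug mean, capped at 1, and the score is summarised by quartiles across technical, biological and donor/recipient replicates.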

S. aureus DSM 20231 = test: as above
Method in brief: as §2

S. aureus Newman = test: as above
Method in brief: as §2

S. pneumoniae D39V [4] = test: as above
Method in brief: as §2
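Wherever Bliss interaction score (quartile over a dose matrix) is given: first quartile when negative (synergy) and third quartile when positive (antagonism).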

C[C@H]1COc2c(N3CCN(C)CC3)c(F)cc3c(=O)c(C(=O)O)cn1c23 [Levofloxacin] + CCC[C@@H]1C[C@@H](C(=O)N[C@@H]([C@H]2O[C@H](SC)[C@H](O)[C@@H](O)[C@H]2O)[C@@H](C)O)N(C)C1 [Lincomycin]
fitness, B. subtilis 168 [1], one replicate
Settings | partner 0.1 µg/mL | partner 0.2 µg/mL | partner 0.4 µg/mL | partner 0.8 µg/mL | partner 1.6 µg/mL
first compound 0.001 µg/mL | – | – | 0.789 | 0.889 | 0.849
first compound 0.002 µg/mL | ≥ 1 | 0.968 | – | 0.797 | 0.767
first compound 0.0039 µg/mL | ≥ 1 | 0.975 | – | 0.743 | 0.806
first compound 0.0078 µg/mL | 0.997 | 0.961 | 0.945 | – | –

Settings | fitness
B. subtilis 168 [1], first compound 0.002 µg/mL, partner 0.4 µg/mL | 0.897
B. subtilis 168 [1], first compound 0.0039 µg/mL, partner 0.4 µg/mL | 0.888
B. subtilis 168 [1], first compound 0.0312 µg/mL, partner 0.1 µg/mL | 0.0367
B. subtilis 168 [1], first compound 0.0312 µg/mL, partner 0.2 µg/mL | 0.0349
B. subtilis 168 [1], first compound 0.0312 µg/mL, partner 0.4 µg/mL | 0.0483
B. subtilis 168 [1], first compound 0.0625 µg/mL, partner 0.1 µg/mL | 0.0423
B. subtilis 168 [1], first compound 0.0625 µg/mL, partner 0.2 µg/mL | 0.0292
B. subtilis 168 [1], first compound 0.0625 µg/mL, partner 0.4 µg/mL | 0.0493
B. subtilis 168 [1], first compound 0.125 µg/mL, partner 0.1 µg/mL | 0.0441
B. subtilis 168 [1], first compound 0.125 µg/mL, partner 0.2 µg/mL | 0.0449
B. subtilis 168 [1], first compound 0.125 µg/mL, partner 0.4 µg/mL | 0.0489
S. pneumoniae D39V [2], first compound 0.1725 µg/mL, partner 0.2 µg/mL | 0.768
S. pneumoniae D39V [2], first compound 0.1725 µg/mL, partner 0.4 µg/mL | 0.7
S. pneumoniae D39V [2], first compound 0.1725 µg/mL, partner 0.8 µg/mL | 0.266
S. pneumoniae D39V [2], first compound 0.2 µg/mL, partner 0.215 µg/mL | 0.807
S. pneumoniae D39V [2], first compound 0.2 µg/mL, partner 0.43 µg/mL | 0.77
S. pneumoniae D39V [2], first compound 0.2 µg/mL, partner 0.86 µg/mL | 0.5
S. pneumoniae D39V [2], first compound 0.345 µg/mL, partner 0.2 µg/mL | 0.726
S. pneumoniae D39V [2], first compound 0.345 µg/mL, partner 0.4 µg/mL | 0.639
S. pneumoniae D39V [2], first compound 0.345 µg/mL, partner 0.8 µg/mL | 0.201
S. pneumoniae D39V [2], first compound 0.4 µg/mL, partner 0.215 µg/mL | 0.754
S. pneumoniae D39V [2], first compound 0.4 µg/mL, partner 0.43 µg/mL | 0.68
S. pneumoniae D39V [2], first compound 0.4 µg/mL, partner 0.86 µg/mL | 0.379
S. pneumoniae D39V [2], first compound 0.69 µg/mL, partner 0.2 µg/mL | 0.542
S. pneumoniae D39V [2], first compound 0.69 µg/mL, partner 0.4 µg/mL | 0.503
S. pneumoniae D39V [2], first compound 0.69 µg/mL, partner 0.8 µg/mL | 0.18
S. pneumoniae D39V [2], first compound 0.8 µg/mL, partner 0.215 µg/mL | 0.691
S. pneumoniae D39V [2], first compound 0.8 µg/mL, partner 0.43 µg/mL | 0.596
S. pneumoniae D39V [2], first compound 0.8 µg/mL, partner 0.86 µg/mL | 0.272

Settings | Bliss interaction score
B. subtilis 168 [3] | 0.0149
S. aureus DSM 20231 | 0.169
S. aureus Newman | 0.0423
S. pneumoniae D39V [4] | 0.104

C[C@H]1COc2c(N3CCN(C)CC3)c(F)cc3c(=O)c(C(=O)O)cn1c23 [Levofloxacin] + CO[C@@H]1[C@@H](OC(N)=O)[C@@H](O)[C@H](Oc2ccc3c(O)c(NC(=O)c4ccc(O)c(CC=C(C)C)c4)c(=O)oc3c2C)OC1(C)C [Novobiocin]
fitness, B. subtilis 168 [1], one replicate
Settings | partner 0.05 µg/mL | partner 0.1 µg/mL | partner 0.125 µg/mL | partner 0.2 µg/mL | partner 0.25 µg/mL | partner 0.5 µg/mL
first compound 0.001 µg/mL | ≥ 1 | ≥ 1 | – | ≥ 1 | – | –
first compound 0.002 µg/mL | 0.929 | 0.952 | 0.908 | 0.933 | 0.874 | 0.493
first compound 0.0039 µg/mL | 0.965 | ≥ 1 | 0.839 | 0.928 | 0.808 | 0.505
first compound 0.0078 µg/mL | – | – | 0.864 | – | 0.808 | 0.457

fitness, B. subtilis 168 [1]
Settings | first compound 0.0312 µg/mL | first compound 0.0625 µg/mL | first compound 0.125 µg/mL
partner 0.0125 µg/mL | 0.0275 | 0.0273 | 0.0195
partner 0.025 µg/mL | 0.0255 | 0.0301 | 0.0265
partner 0.05 µg/mL | 0.028 | 0.0286 | 0.0286

Settings | Bliss interaction score
B. subtilis 168 [3] | -0.0305
S. aureus DSM 20231 | -0.0698
S. aureus Newman | -0.091
S. pneumoniae D39V [4] | -0.121

C[C@H]1COc2c(N3CCN(C)CC3)c(F)cc3c(=O)c(C(=O)O)cn1c23 [Levofloxacin] + COc1cc(Cc2cnc(N)nc2N)cc(OC)c1OC [Trimethoprim]
B. subtilis 168 [1], one replicate
Settings | fitness
first compound 0.001 µg/mL, partner 0.125 µg/mL | 0.528
first compound 0.001 µg/mL, partner 0.25 µg/mL | 0.41
first compound 0.001 µg/mL, partner 0.5 µg/mL | 0.456
first compound 0.002 µg/mL, partner 0.1 µg/mL | 0.907
first compound 0.002 µg/mL, partner 0.2 µg/mL | 0.804
first compound 0.002 µg/mL, partner 0.4 µg/mL | 0.572
first compound 0.0039 µg/mL, partner 0.1 µg/mL | 0.884
first compound 0.0039 µg/mL, partner 0.2 µg/mL | 0.745
first compound 0.0039 µg/mL, partner 0.4 µg/mL | 0.548
first compound 0.0078 µg/mL, partner 0.1 µg/mL | 0.872
first compound 0.0078 µg/mL, partner 0.125 µg/mL | 0.736
first compound 0.0078 µg/mL, partner 0.2 µg/mL | 0.696
first compound 0.0078 µg/mL, partner 0.4 µg/mL | 0.521
first compound 0.0312 µg/mL, partner 1 µg/mL | 0.0312
first compound 0.0312 µg/mL, partner 2 µg/mL | 0.0414
first compound 0.0625 µg/mL, partner 1 µg/mL | 0.0468
first compound 0.0625 µg/mL, partner 2 µg/mL | 0.0379
first compound 0.125 µg/mL, partner 1 µg/mL | 0.0309
first compound 0.125 µg/mL, partner 2 µg/mL | 0.0616

fitness, B. subtilis 168 [1]
Settings | first compound 0.002 µg/mL | first compound 0.0039 µg/mL | first compound 0.0078 µg/mL | first compound 0.0312 µg/mL | first compound 0.0625 µg/mL | first compound 0.125 µg/mL
partner 0.125 µg/mL | 0.554 | 0.564 | – | – | – | –
partner 0.25 µg/mL | – | – | 0.689 | – | – | –
partner 0.5 µg/mL | 0.423 | 0.414 | 0.494 | 0.0339 | 0.0357 | 0.0365

Settings | Bliss interaction score
B. subtilis 168 [3] | 0.0693
S. aureus DSM 20231 | -0.0537
S. aureus Newman | -0.109
S. pneumoniae D39V [4] | -0.112

CN(C)C(=O)C(CCN1CCC(O)(c2ccc(Cl)cc2)CC1)(c1ccccc1)c1ccccc1 [Loperamide] + CO[C@@H]1[C@@H](OC(N)=O)[C@@H](O)[C@H](Oc2ccc3c(O)c(NC(=O)c4ccc(O)c(CC=C(C)C)c4)c(=O)oc3c2C)OC1(C)C [Novobiocin]
B. subtilis 168 [1], first compound 25 µg/mL
Settings | fitness
partner 0.0125 µg/mL | 0.889
partner 0.025 µg/mL | 0.85
partner 0.05 µg/mL | 0.86

fitness, B. subtilis 168 [1], one replicate
Settings | first compound 25 µg/mL | first compound 50 µg/mL | first compound 100 µg/mL
partner 0.125 µg/mL | 0.703 | 0.028 | 0.0375
partner 0.25 µg/mL | 0.274 | 0.0063 | 0.0267
partner 0.5 µg/mL | 0.186 | 0.0466 | 0.0548

Settings | Bliss interaction score
B. subtilis 168 [3] | 0.205
S. aureus DSM 20231 | -0.0535
S. aureus Newman | -0.0759
S. pneumoniae D39V [4] | -0.113

CN(C)C(=O)C(CCN1CCC(O)(c2ccc(Cl)cc2)CC1)(c1ccccc1)c1ccccc1 [Loperamide] + COc1cc(Cc2cnc(N)nc2N)cc(OC)c1OC [Trimethoprim]
fitness, B. subtilis 168 [1], one replicate
Settings | partner 0.1 µg/mL | partner 0.125 µg/mL | partner 0.2 µg/mL | partner 0.4 µg/mL | partner 1 µg/mL | partner 2 µg/mL
first compound 25 µg/mL | 0.0203 | 0.525 | 0.0477 | 0.0288 | 0.0225 | 0.0222
first compound 50 µg/mL | 0.0097 | 0.0833 | 0.0381 | 0.0129 | 0.0319 | 0.0248
first compound 100 µg/mL | 0.0141 | 0.107 | 0.0463 | 0.0259 | 0.031 | 0.0361

fitness, B. subtilis 168 [1]
Settings | first compound 50 µg/mL | first compound 100 µg/mL
partner 0.25 µg/mL | 0.201 | 0.0658
partner 0.5 µg/mL | 0.0275 | 0.0239

Settings | Bliss interaction score
B. subtilis 168 [3] | -0.102
S. aureus DSM 20231 | -0.0416
S. aureus Newman | 0.0605
S. pneumoniae D39V [4] | 0.274
